Measured values as given in patent publication US12661342B2, “Heteroaryl compounds and therapeutic uses thereof in conditions associated with the alteration of the activity of beta-glucocerebrosidase” (GT GAIN THERAPEUTICS SA, priority 2019, dated 2026).

Molecular target: T1, β-glucocerebrosidase (Homo sapiens, UniProt P04062, L483P)
T1 construct: host or cells: human Gaucher disease patient fibroblasts GM08760A
T1 sequence (P04062 40-536 L483P): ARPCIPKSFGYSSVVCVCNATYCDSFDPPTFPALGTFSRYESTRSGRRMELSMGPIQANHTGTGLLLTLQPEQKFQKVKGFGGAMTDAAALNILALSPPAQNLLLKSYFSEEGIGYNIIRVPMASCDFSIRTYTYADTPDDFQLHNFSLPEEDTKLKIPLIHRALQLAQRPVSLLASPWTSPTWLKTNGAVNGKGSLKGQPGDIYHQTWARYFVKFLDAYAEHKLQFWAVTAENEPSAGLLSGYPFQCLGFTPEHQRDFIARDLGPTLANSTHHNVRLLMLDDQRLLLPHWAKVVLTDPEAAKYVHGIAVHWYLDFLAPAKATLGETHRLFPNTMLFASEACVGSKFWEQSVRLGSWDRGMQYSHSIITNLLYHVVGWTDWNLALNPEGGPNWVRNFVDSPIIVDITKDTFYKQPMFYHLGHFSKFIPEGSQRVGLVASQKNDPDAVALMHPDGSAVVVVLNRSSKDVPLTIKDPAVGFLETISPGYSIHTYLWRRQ
Experiment: Enhancement of β-glucocerebrosidase activity measured in Gaucher disease fibroblasts (4-MU-β-D-glucopyranoside substrate, intact cells)
Assay type: cell-based
Set-up: key: Increase in comparison with non-treated of >2.0 fold is shown as A; Increase in comparison with non-treated of >1.7-2.0 fold is shown as B; Increase in comparison with non-treated of 1.2-1.7 fold is shown as C; D means that no increase compared with non-treated cells was detected in this method
Conditions: GBA fibroblasts bearing L444P (GM08760A, homozygous p.L444P); compound at concentrations between 6 and 50 μM; 4 days incubation
In short: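 Patient fibroblasts homozygous for p.L444P (GM08760A), grown in DMEM/10% FBS and exposed to compound for 4 days. Intact cells then given 4-MU-β-D-glucopyranoside in 0.1 M acetate pH 4, 1 h, 37 °C; stopped at pH 10.7, 4-MU fluorescence ex 340/em 460. Value is fold increase over untreated cells; binned at 6–50 μM.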

| Compound | Range: increase in enzyme activity in comparison with non-treated cells (Enzyme activity assay for compounds of Examples 33-141) | Range: increase in enzyme activity in comparison with non-treated cells (Enzyme activity assay for exemplified compounds) |
| --- | --- | --- |
| Nc1nc(Nc2ccccc2O)nc(C(=O)NC2CCc3ccccc3C2)n1 (stereo not drawn) [Example 126, 4-Amino-6-((2-hydroxyphenyl)amino)-N-(1,2,3,4-tetrahydronaphthalen-2-yl)-1,3,5-triazine-2-carboxamide] | C (Increase in comparison with non-treated of 1.2-1.7 fold is shown as C) | – |
| Nc1cc(Nc2ccccc2F)cc(C(=O)Nc2ccccc2)n1 [Example 74, 6-Amino-4-((2-fluorophenyl)amino)-N-phenylpicolinamide] | C (Increase in comparison with non-treated of 1.2-1.7 fold is shown as C) | – |
| CN(C(=O)c1cc(Nc2ccccc2O)nc(N)n1)C1CCc2ccccc2C1 (stereo not drawn) [Example 83, 2-amino-6-((2-hydroxyphenyl)amino)-N-methyl-N-(1,2,3,4-tetrahydronaphthalen-2-yl)-pyrimidine-4-carboxamide] | D | – |
| Nc1nc(Nc2ccccc2O)cc(C(=O)N2CCN(c3ccccc3)CC2)n1 [Example 130, (2-Amino-6-((2-hydroxyphenyl)amino)pyrimidin-4-yl)(4-phenylpiperazin-1-yl)methanone] | C (Increase in comparison with non-treated of 1.2-1.7 fold is shown as C) | – |
| Cc1c(F)cccc1Nc1cc(N)cc(C(=O)NC2Cc3ccccc3C2)n1 [Example 108, 4-Amino-N-(2,3-dihydro-1H-inden-2-yl)-6-((3-fluoro-2-methylphenyl)amino)picolinamide] | B (Increase in comparison with non-treated of >1.7-2.0 fold is shown as B) | – |
| Nc1cc(Nc2ccccc2O)cc(C(=O)NC2CCc3ccccc3C2)n1 (stereo not drawn) [Example 127, 6-Amino-4-((2-hydroxyphenyl)amino)-N-(1,2,3,4-tetrahydronaphthalen-2-yl)picolinamide] | B (Increase in comparison with non-treated of >1.7-2.0 fold is shown as B) | – |
| Nc1cc(Nc2ccccc2F)nc(C(=O)N2CCN(c3ccccc3)CC2)c1 [Example 48, (4-Amino-6-((2-fluorophenyl)amino)pyridin-2-yl)(4-phenylpiperazin-1-yl)methanone] | C (Increase in comparison with non-treated of 1.2-1.7 fold is shown as C) | – |
| CN(C(=O)c1cc(N)nc(Nc2ccccc2O)c1)C1CCc2ccccc2C1 (stereo not drawn) [Example 42, 2-Amino-6-((2-hydroxyphenyl)amino)-N-methyl-N-(1,2,3,4-tetrahydronaphthalen-2-yl)isonicotinamide] | C (Increase in comparison with non-treated of 1.2-1.7 fold is shown as C) | – |
| Nc1cc(Nc2ccccc2O)cc(C(=O)N2CCc3ccccc32)n1 [Example 64, (6-Amino-4-((2-hydroxyphenyl)amino)pyridin-2-yl)(indolin-1-yl)methanone] | C (Increase in comparison with non-treated of 1.2-1.7 fold is shown as C) | – |
| Nc1cc(C(=O)NC2Cc3ccccc3C2)cc(Nc2ccccc2O)n1 [Example 47, 2-Amino-N-(2,3-dihydro-1H-inden-2-yl)-6-((2-hydroxyphenyl)amino)isonicotinamide] | C (Increase in comparison with non-treated of 1.2-1.7 fold is shown as C) | – |
| CN(C(=O)c1cc(N)nc(N[C@H]2CCCC[C@@H]2O)n1)c1ccccc1 [Example 33, 6-Amino-2-(((1S,2S)-2-hydroxycyclohexyl)amino)-N-methyl-N-phenylpyrimidine-4-carboxamide] | D | – |
| Nc1cc(C(=O)N2CCCc3ccccc32)nc(Nc2ccccc2O)n1 [Example 36, (6-Amino-2-((2-hydroxyphenyl)amino)pyrimidin-4-yl)(3,4-dihydroquinolin-1(2H)-yl)methanone] | C (Increase in comparison with non-treated of 1.2-1.7 fold is shown as C) | – |
| Cc1ccc(Nc2nc(N)cc(C(=O)NC3CCc4ccccc4C3)n2)cc1 (stereo not drawn) [Example 22, 6-Amino-N-(1,2,3,4-tetrahydronaphthalen-2-yl)-2-(p-tolylamino)pyrimidine-4-carboxamide] | – | A (Increase in comparison with non-treated of >2.0 fold is shown as A) |
| Nc1cc(Nc2ccccc2O)nc(C(=O)NC2Cc3ccccc3C2)c1 [Example 129, 4-Amino-N-(2,3-dihydro-1H-inden-2-yl)-6-((2-hydroxyphenyl)amino)picolinamide] | C (Increase in comparison with non-treated of 1.2-1.7 fold is shown as C) | – |
| Nc1nc(Nc2cccc(Br)c2)nc(C(=O)N2CCN(c3ccccc3)CC2)n1 [Example 16, (4-Amino-6-((3-bromophenyl)amino)-1,3,5-triazin-2-yl)(4-phenylpiperazin-1-yl)methanone] | – | C (Increase in comparison with non-treated of 1.2-1.7 fold is shown as C) |
| COc1ccccc1Nc1nc(N)c2c(n1)CN(Cc1ccccc1)CC2 [Example 28, 7-Benzyl-N2-(2-methoxyphenyl)-5,6,7,8-tetrahydropyrido[3,4-d]pyrimidine-2,4-diamine] | – | C (Increase in comparison with non-treated of 1.2-1.7 fold is shown as C) |
| Nc1cc(C(=O)NC2CCc3ccccc3C2)cc(Nc2ccccc2O)n1 (stereo not drawn) [Example 45, 2-Amino-6-((2-hydroxyphenyl)amino)-N-(1,2,3,4-tetrahydronaphthalen-2-yl)isonicotinamide] | C (Increase in comparison with non-treated of 1.2-1.7 fold is shown as C) | – |
| Nc1cc(C(=O)N2Cc3ccccc3C2)nc(Nc2cccc(Cl)c2)n1 [Example 41] | D | – |
| Cl.Nc1cc(Nc2cccc(F)c2)nc(C(=O)Nc2ccccc2)c1 [Example 134, 4-Amino-6-((3-fluorophenyl)amino)-N-phenylpicolinamide hydrochloride] | A (Increase in comparison with non-treated of >2.0 fold is shown as A) | – |
| Nc1cc(Nc2ccc(F)cc2O)cc(C(=O)NC2Cc3ccccc3C2)n1 [Example 69, 6-Amino-N-(2,3-dihydro-1H-inden-2-yl)-4-((4-fluoro-2-hydroxyphenyl)amino)picolinamide] | B (Increase in comparison with non-treated of >1.7-2.0 fold is shown as B) | – |
| CN(Cc1ccccc1)C(=O)c1nc(N)nc(Nc2cccc(Br)c2)n1 [Example 17, 4-Amino-N-benzyl-6-((3-bromophenyl)amino)-N-methyl-1,3,5-triazine-2-carboxamide] | – | D |
| CN(C(=O)c1cc(N)nc(Nc2ccccc2O)n1)C1Cc2ccccc2C1 [Example 10, 6-Amino-N-(2,3-dihydro-1H-inden-2-yl)-2-((2-hydroxyphenyl)amino)-N-methylpyrimidine-4-carboxamide] | – | C (Increase in comparison with non-treated of 1.2-1.7 fold is shown as C) |
| N#Cc1ccccc1Nc1cc(N)cc(C(=O)NC2Cc3ccccc3C2)n1 [Example 99, 4-Amino-6-((2-cyanophenyl)amino)-N-(2,3-dihydro-1H-inden-2-yl)picolinamide] | D | – |
| Nc1cc(Nc2cccc3c2OCO3)nc(C(=O)N2Cc3ccccc3C2)c1 [Example 95, (4-Amino-6-(benzo[d][1,3]dioxol-4-ylamino)pyridin-2-yl)(isoindolin-2-yl)methanone] | C (Increase in comparison with non-treated of 1.2-1.7 fold is shown as C) | – |
| COc1cccc(Nc2nc(N)nc3c2CCN(Cc2ccccc2)C3)c1 [Example 23, 7-Benzyl-N4-(3-methoxyphenyl)-5,6,7,8-tetrahydropyrido[3,4-d]pyrimidine-2,4-diamine] | – | C (Increase in comparison with non-treated of 1.2-1.7 fold is shown as C) |
| COc1ccccc1Nc1cc(N)cc(C(=O)Nc2ccccc2)n1 [Example 93, 4-Amino-6-((2-methoxyphenyl)amino)-N-phenylpicolinamide] | B (Increase in comparison with non-treated of >1.7-2.0 fold is shown as B) | – |
| Cc1cccc(Nc2cc(N)cc(C(=O)NC3Cc4ccccc4C3)n2)c1F [Example 90, 4-Amino-N-(2,3-dihydro-1H-inden-2-yl)-6-((2-fluoro-3-methylphenyl)amino)picolinamide] | C (Increase in comparison with non-treated of 1.2-1.7 fold is shown as C) | – |
